According to patent US11512074B2, “Substituted diamino heterocyclic carboxamide compound and a composition containing the compound and use thereof” (Shenzhen TargetRx, Inc., priority 2018, dated 2022):

Tests used:
Type in all cases: cell-based
Ba/F3 parental cells = assay: Inhibition of Ba/F3 parental cell proliferation (CTG); details: Mus musculus, BaF3, 72 hours, with IL-3
Procedure: (§1) Cell lines were cultured under the condition of 37° C., 5% CO2 and 95% humidity: cell line Ba/F3 parental (suspended, 3000 cells/well, medium was RPMI-1640+10% FBS+8 ng/ml IL-3), cell line Ba/F3 FLT3-ITD (suspended, 3000 cells/well, medium was RPMI-1640+10% FBS)
(§2) Reagents and materials: Fetal bovine serum (FBS, GBICO, Cat. No. 10099-141), CellTiter-Glo® Luminescent Cell Viability Assay (Promega, Cat. No. G7572), 96-well plate with transparent flat bottom and black walls (Corning®, Cat. No. 3603), control compound AC220 (Selleck, Cat. No. S1526).
(§3) Cell Culture and Inoculation: • 1. Cells in the logarithmic growth phase were harvested and counted using a platelet counter. The cell viability was determined by trypan blue exclusion method to ensure that the cell viability was greater than 90%; • 2. The cell concentration was adjusted and 90 μL of the cell suspension was added into a 96-well plate respectively; • 3. The cells in the 96-well plate were cultured overnight under the condition of 37° C., 5% CO2 and 95% humidity.
(§4) Drug Dilution and Dosing: • 1. The 10-fold drug solutions were prepared with a maximum concentration of 100 μM, which was diluted using a 3.16-fold serial gradient dilution, resulting in 9 concentrations. 10 μL of the drug solutions was added to each well of the 96-well plate inoculated with Ba/F3 parental cells; and each drug concentration was set in triplicate. • 2. The 10-fold drug solutions were prepared with a maximum concentration of 10 μM, which was diluted using a 3.16-fold serial gradient dilution, resulting in 9 concentrations. 10 μL of the drug solutions was added to each well of the 96-well plate inoculated with Ba/F3 FLT3-ITD cells; and each drug concentration was set in triplicate. • 3. The cells in the 96-well plate with drugs were cultured at 37° C., 5% CO2 and 95% humidity for 72 hours, and then CTG analysis was carried out.
(§5) Plate Reading at the End Point: • 1. CTG reagent was thawed and the cell plate was equilibrated to room temperature for 30 minutes; • 2. Equal volume of the CTG solution was added to each well; • 3. The cell plate was shaked on the orbital shaker for 5 minutes to lyse the cells; • 4. The cell plate was placed at room temperature for 20 minutes to stabilize the cold light signal; • 5. The cold light values were read.
(§6) GraphPad Prism 8.0 software was used to analyze the data, and the data was fitted using the non-linear S-curve regression to get a dose-effect curve, and IC50 values were calculated. Cell viability (%)=(Lum of test drug−Lum of medium control)/(Lum of cell control−Lum of medium control)×100%.

MV-4-11 cells = assay: Inhibition of cell MV-4-11 proliferation (CTG assay); details: Homo sapiens, MV4-11, 72 hours
Source text: (§7) Cell MV-4-11 (ATCC, Cat. No. CRL-9591), cell MOLM-13 (COBIOER, Cat. No. CBP60678), RPMI-1640 (GIBCO, Cat. No. A10491-01), penicillin-streptomycin (GIBCO, Cat. No. 15140-122), fetal bovine serum (GIBCO, Cat. No. 10099-141), phosphate buffer solution PBS (GIBCO, Cat. No. 10010-031), DMSO (Sigma, Cat. No. D8418-1L), CelltiterGlo Assay kit (CTG) (Promega, Cat. No. G7573), 96-well plate with transparent flat bottom and black walls (PerkinElmer, Cat. No. 6005680-50), plate shaker (QILINBEIER, Cat. No. B-9002), centrifuge (Eppendorf, Cat. No. 5804R), CO2 incubator (Thermo Scientific, Cat. No. 371), microscope (OLYMPUS Cat. No. CKX41), multi-plate reader (PerkinElmer, Cat. No. EnVision).
(§8) (2) Preparation of Cell Suspension • a) The medium was collected from the culture bottle and centrifuged at 1000 rpm for 5 min. • b) The supernatant was discarded, and the cells were resuspended in medium containing 10% fetal bovine serum, and counted to prepare a cell suspension (cell viability was greater than 90%). • c) The cell suspension was added into a 96-well plate, with […] in each well, namely 5000 MV-4-11 cells/well; 5000 MOLM-13 cells/well. • d) The cell plate was cultured overnight in a 37° C., 5% CO2 incubator.
(§9) Dilution of Compounds in DMSO: • a) MV-4-11 cells: The compounds were diluted with DMSO from 10 mM to 60 uM, and then subjected to a 3-fold serial gradient dilution in DMSO from 60 uM, resulting in 9 concentrations. • b) MOLM-13 cells: The compounds were diluted with DMSO from 10 mM to 200 uM, and then subjected to a 3-fold serial gradient dilution in DMSO from 200 uM, resulting in 9 concentrations. • c) Compound Taxol was diluted with DMSO from 10 mM to 200 uM, and then subjected to a 3-fold serial gradient dilution in DMSO from 200 uM, resulting in 9 concentrations.
(§10) (4) Treatment of Cells with Compounds (after the Overnight Incubation of the Cell Plate) • a) Each well was replenished with 99 μl of growth medium containing 10% FBS, and then 1 μl of the diluted compound was added to the well. The concentration of DMSO was 0.5%. • b) Concentrations of the tested compounds were: MV-4-11 cells: 300, 100, 33.3, 11.1, 3.7, 1.23, 0.41, 0.137, 0.046, 0 [nM]. • MOLM-13 cells: 1000, 333.3, 111.1, 37.04, 12.35, 4.1, 1.37, 0.46, 0.15, 0 [nM]. • c) Concentrations of control compound Taxol were: 1000, 333.3, 111.1, 37.04, 12.35, 4.12, 1.37, 0.46, 0.15, 0 [nM]. • d) The cell plate was placed in the incubator for 72 hours.
(§11) (5) CTG Assay • a) The test plate was placed at room temperature and equilibrated for 30 minutes, and 60 μl of the culture medium was discarded. • b) 60 μl of CTG reagent (CelltiterGlo kit) was added, and the plate was placed on a rapid plate shaker to shake for 2 min, and then let it stand at room temperature for 20 min. • c) Envision was used to read the values.
(§12) IC50 values were calculated using GraphPad Prism 6 software. The IC50 (half inhibitory concentration) values of the compounds were obtained by the following non-linear fitting formula. Y=Bottom+(Top−Bottom)/(1+10^((Log IC50−X)*HillSlope)) • X: Log value of the compound concentration • Y: Inhibition rate (% inhibition) % inhibition (inhibition rate)=100*(value of the High Control-value of the test compound well)/(value of the High Control-value of the Low Control)

Ba/F3 FLT3-ITD cells = assay: Inhibition of Ba/F3 FLT3-ITD cell proliferation (CTG); details: 72 hours, read-out: BaF3 [FLT3-ITD] IC50
Procedure: as §1, §2, §3, §4, §5, §6

MOLM-13 cells = assay: Inhibition of cell MOLM-13 proliferation (CTG assay); details: Homo sapiens, 72 hours, read-out: MOLM-1 IC50
Source text: as §7, §8, §9, §10, §11, §12

Structure (SMILES)	IC50 (Ba/F3 parental cells) [nM]	IC50 (MV-4-11 cells) [nM]	IC50 (Ba/F3 FLT3-ITD cells) [nM]	IC50 (MOLM-13 cells) [nM]
[2H]C([2H])([2H])Oc1cc(Nc2nc(NC3CCOCC3)c(CC)nc2C(N)=O)ccc1N1CCC(N2CCN(C)CC2)CC1 [Compound T-1, 6-ethyl-3-((3-(methoxy-d3)-4-(4-(4-methylpiperazin-1-yl)piperidin-1-yl)phenyl)amino)-5-((tetrahydro-2H-pyran-4-yl)amino)pyrazine-2-carboxamide]	9720	2.17	46.5	15
[2H]C([2H])([2H])N1CCN(C2CCN(c3ccc(Nc4nc(NC5CCOCC5)c(CC)nc4C(N)=O)cc3OC)CC2)CC1 [Compound T-2, 6-ethyl-3-((3-methoxy-4-(4-(4-(methyl-d3)piperazin-1-yl)piperidin-1-yl)phenyl)amino)-5-((tetrahydro-2H-pyran-4-yl)amino)pyrazine-2-carboxamide]	7160	2.35	51.3	14.3
[2H]C([2H])([2H])Oc1cc(Nc2nc(NC3CCOCC3)c(CC)nc2C(N)=O)ccc1N1CCC(N2CCN(C([2H])([2H])[2H])CC2)CC1 [Compound T-3, 6-ethyl-3-((3-(methoxy-d3)-4-(4-(4-(methyl-d3)piperazin-1-yl)piperidin-1-yl)phenyl)amino)-5-((tetrahydro-2H-pyran-4-yl)amino)pyrazine-2-carboxamide]	5370	2.25	89	14.2
[2H]C([2H])([2H])N1CCN(C2CCN(c3ccc(Nc4nc(NC5CCOCC5)c(C([2H])([2H])C([2H])([2H])[2H])nc4C(N)=O)cc3OC)CC2)CC1 [Compound T-5, 6-(ethyl-d5)-3-((3-methoxy-4-(4-(4-(methyl-d3)piperazin-1-yl)piperidin-1-yl)phenyl)amino)-5-((tetrahydro-2H-pyran-4-yl)amino)pyrazine-2-carboxamide]	9290	2.01	94.4	12
[2H]C1([2H])N(C)C([2H])([2H])C([2H])([2H])N(C2CCN(c3ccc(Nc4nc(NC5CCOCC5)c(CC)nc4C(N)=O)cc3OC)CC2)C1([2H])[2H] [Compound T-8, 6-ethyl-3-((3-methoxy-4-(4-(4-methylpiperazin-1-yl-2,2,3,3,5,5,6,6-d8)piperidin-1-yl)phenyl)amino)-5-((tetrahydro-2H-pyran-4-yl)amino)pyrazine-2-carboxamide]	6870	2.17	85	
[2H]C([2H])([2H])N1C([2H])([2H])C([2H])([2H])N(C2CCN(c3ccc(Nc4nc(NC5CCOCC5)c(CC)nc4C(N)=O)cc3OC)CC2)C([2H])([2H])C1([2H])[2H] [Compound T-9, 6-ethyl-3-((3-methoxy-4-(4-(4-(methyl-d3)piperazin-1-yl-2,2,3,3,5,5,6,6-d8)piperidin-1-yl)phenyl)amino)-5-((tetrahydro-2H-pyran-4-yl)amino)pyrazine-2-carboxamide]	> 10000	2.03	72	14.5
CCc1nc(C(N)=O)c(Nc2ccc(N3CCC(N4CCN(C)CC4)CC3)c(OC)c2)nc1NC1CCOCC1 [Gilteritinib, 6-ethyl-3-((3-methoxy-4-(4-(4-methylpiperazin-1-yl)piperidin-1-yl)phenyl)amino)-5-((tetrahydro-2H-pyran-4-yl)amino)pyrazine-2-carboxamide, reference compound]		2.23		14.3
